Our source for the inhibition values is ChEMBL document CHEMBL5634150, “Design, synthesis and biological evaluation of novel dihydroquinolin-4(1H)-one derivatives as novel tubulin polymerization inhibitors” (Eur J Med Chem, 2023).

Type in all cases: functional
The test system of experiment [1] is A549. Kind of experiment: Antiproliferative activity against human A549 cells assessed as inhibition of cell growth at 1 uM measured after 72 hrs by MTT assay relative to control.
The test system of experiment [2] is A549. Kind of experiment: Antiproliferative activity against human A549 cells assessed as inhibition of cell growth at 0.01 uM measured after 72 hrs by MTT assay relative to control. (In general: Tetrazolium assays rely on reduction of a dye to a coloured formazan, in cell work by metabolically active cells.)
For experiment [3], the system named is A549. Nature of the experiment: Antiproliferative activity against human A549 cells assessed as inhibition of cell growth at 0.1 uM measured after 72 hrs by MTT assay relative to control.

With `COc1ccc(CN2CCC(=O)c3c2cc(OC)c(OC)c3OC)cc1O`, the inhibition at 1 µM in the experiment with A549 [1] worked out at 17.7%. Further, in the experiment with A549 [2], the inhibition at 0.01 µM amounted to 13%. In addition, the inhibition at 0.1 µM in the experiment on A549 [3] turned out to be 13%.
With `COc1ccc(N2CCC(=O)c3ccccc32)cc1O`, in the experiment on A549 [1], the inhibition at 1 µM is 58.5%. Also, the inhibition at 0.01 µM in the experiment on A549 [2] amounted to 38.2%. The inhibition at 0.1 µM in the experiment with A549 [3] is 54.7%.
As for `COc1cc2c(c(OC)c1OC)C(=O)CCN2c1ccccc1`, the inhibition at 1 µM in the experiment on A549 [1] was found to be 31.1%. For the same compound, the inhibition at 0.01 µM with A549 [2] was determined as 6.13%. The inhibition at 0.1 µM in the experiment with A549 [3] came out at 12.3%.
Regarding `COc1ccc(N2CCC(=O)c3c2cc(OC)c(OC)c3OC)cn1`, the inhibition at 1 µM in the experiment on A549 [1] worked out at 45.3%. Moreover, in the experiment with A549 [2], the inhibition at 0.01 µM was found to be 18.8%. Moreover, the inhibition at 0.1 µM in the experiment with A549 [3] was 30.4%.
The like results for `COc1cc2c(c(OC)c1OC)C(=O)CCN2c1cccc2[nH]ccc12` were, in that order, 35.9%, 11.6% and 31.2%.
As for `COc1cc2c(c(OC)c1OC)C(=O)CCN2Cc1ccc(C(F)(F)F)cc1`, in the experiment on A549 [1], the inhibition at 1 µM stood at 28.6%. In the experiment on A549 [2], the inhibition at 0.01 µM was 6.29%. Further, the inhibition at 0.1 µM in the experiment with A549 [3] is 22.1%.
The like results for `COc1cc(N2CCC(=O)c3c2cc(OC)c(OC)c3OC)cc(OC)c1OC` were, in that order, 28.4%, 12.3% and 19.4%.
The matching figures for `COc1cc2c(c(OC)c1OC)C(=O)CCN2c1ccc(O)c(O)c1`: 35%, 21.9% and 22.9%.
The like results for `COc1cc2c(c(OC)c1OC)C(=O)CCN2c1c[nH]c2ccccc12` were, in that order, 51.7%, 16.6% and 31.4%.
Consider `COc1cc2c(cc1O)N(c1cc(OC)c(OC)c(OC)c1)CCC2=O`, for which the inhibition at 1 µM in the experiment with A549 [1] is 54.4%. Moreover, in the experiment with A549 [2], the inhibition at 0.01 µM came to 33.5%. Also, the inhibition at 0.1 µM in the experiment on A549 [3] is 45.6%.
Consider `COc1ccc(N2CCC(=O)c3c2cc(OC)c(OC)c3OC)cc1OC`, for which, in the experiment on A549 [1], the inhibition at 1 µM was determined as 41%. Besides, the inhibition at 0.01 µM in the experiment on A549 [2] amounted to 11%. In the experiment with A549 [3], the inhibition at 0.1 µM came out at 17.6%.
The like results for `COc1cc2c(c(OC)c1OC)C(=O)CCN2c1ccc(C)cc1` were, in that order, 64.1%, 21% and 41.7%.
The like results for `COc1cc2c(c(OC)c1OC)C(=O)CCN2c1ccc2c(c1)OCO2` were, in that order, 65.3%, 22.6% and 44.8%.
The like results for `COc1cc(N2CCC(=O)c3cc4c(cc32)OCO4)cc(OC)c1OC` were, in that order, 46.6%, 19.9% and 29.2%.
As to `COc1ccc(N2CCC(=O)c3cc4c(cc32)OCO4)cc1O`, the inhibition at 1 µM in the experiment on A549 [1] stood at 28%. In addition, in the experiment with A549 [2], the inhibition at 0.01 µM came out at 12.7%. Also, in the experiment on A549 [3], the inhibition at 0.1 µM amounted to 14.3%.
The matching figures for `COc1cc2c(c(OC)c1OC)C(=O)CCN2c1cccc(O)c1`: 50.1%, 15.8% and 36.8%.
The matching figures for `COc1ccc2c(c1)C(=O)CCN2c1ccc(OC)c(O)c1`: 66.6%, 32.5% and 40.2%.
The matching figures for `COc1cc2c(c(OC)c1OC)C(=O)CCN2c1ccc(O)cc1`: 29.9%, 9.57% and 15.1%.
For `COc1cc2c(c(OC)c1OC)C(=O)CCN2Cc1ccc(F)cc1`, the inhibition at 1 µM with A549 [1] turned out to be 32.1%. For the same compound, the inhibition at 0.01 µM in the experiment on A549 [2] is 12%. The inhibition at 0.1 µM with A549 [3] is 16.3%.
The matching figures for `COc1cc2c(c(OC)c1OC)C(=O)CCN2Cc1ccccc1`: 23.2%, 8.31% and 6.72%.

One may read the inhibition as the drop in the measured response relative to a control, in per cent.
